The target of series [1] is T1, 5-HT2C receptor (Homo sapiens, UniProt P28335).
T1 construct: expressed in transfected cells; host or cells: HEK293
T1 sequence (P28335 33-458): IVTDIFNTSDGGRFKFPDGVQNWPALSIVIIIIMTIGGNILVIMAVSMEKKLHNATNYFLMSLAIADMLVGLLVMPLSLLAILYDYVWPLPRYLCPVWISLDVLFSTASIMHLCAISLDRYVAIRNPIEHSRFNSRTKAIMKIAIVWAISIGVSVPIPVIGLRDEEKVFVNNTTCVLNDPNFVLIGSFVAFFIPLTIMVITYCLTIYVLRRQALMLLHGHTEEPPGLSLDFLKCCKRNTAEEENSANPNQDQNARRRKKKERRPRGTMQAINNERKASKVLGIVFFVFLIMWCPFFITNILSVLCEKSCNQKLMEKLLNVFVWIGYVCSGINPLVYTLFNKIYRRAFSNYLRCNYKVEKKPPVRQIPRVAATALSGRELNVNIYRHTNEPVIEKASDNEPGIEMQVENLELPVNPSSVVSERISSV
Briefly: IP accumulation assay. Type of series: cell-based. The following applies: HEK293 cells expressing recombinant 5-HT2C receptors, [3H]inositol phosphates, 2 h at 37° C. How it is done:
HEK293 cells expressing recombinant 5-HT2C receptors were added to sterile poly-D-lysine-coated 96-well microtiter plates (35,000 cells/well) and labeled with 0.6 µCi/well of [^3H]inositol in myoinositol-free DMEM for 18 h. Unincorporated [^3H]inositol was removed by aspiration and replaced with fresh myoinositol-free DMEM supplemented with LiCl (10 mM final) and pargyline (10 μM final). Serially diluted test compounds were then added and incubation was conducted for 2 h at 37° C. Incubations were then terminated by lysing cells with the addition of ice-cold 0.1 M formic acid followed by freezing at −80° C. After thawing, total [^3H]inositol phosphates were resolved from [^3H]inositol using AG1-X8 ion exchange resin (Bio-Rad) and [^3H]inositol phosphates were measured by scintillation counting using a Perkin Elmer TopCount® scintillation counter. All EC50 determinations were performed using 10 different concentrations and triplicate determinations were made at each test concentration.

Series [2] has as its target T2, 5-HT2A receptor (Homo sapiens, UniProt P28223). Briefly: IP accumulation assay. Type of series: cell-based. Conditions: [3H]inositol phosphates, read-out: IP Accumulation EC50 (nM) 2A.
The target of series [3] is T3, 5-HT2B receptor (Homo sapiens, UniProt P41595). Put plainly: IP accumulation assay. The series is classed as cell-based. Conditions: [3H]inositol phosphates, read-out: IP Accumulation EC50 (nM) 2B.
T3 sequence (P41595 whole entry): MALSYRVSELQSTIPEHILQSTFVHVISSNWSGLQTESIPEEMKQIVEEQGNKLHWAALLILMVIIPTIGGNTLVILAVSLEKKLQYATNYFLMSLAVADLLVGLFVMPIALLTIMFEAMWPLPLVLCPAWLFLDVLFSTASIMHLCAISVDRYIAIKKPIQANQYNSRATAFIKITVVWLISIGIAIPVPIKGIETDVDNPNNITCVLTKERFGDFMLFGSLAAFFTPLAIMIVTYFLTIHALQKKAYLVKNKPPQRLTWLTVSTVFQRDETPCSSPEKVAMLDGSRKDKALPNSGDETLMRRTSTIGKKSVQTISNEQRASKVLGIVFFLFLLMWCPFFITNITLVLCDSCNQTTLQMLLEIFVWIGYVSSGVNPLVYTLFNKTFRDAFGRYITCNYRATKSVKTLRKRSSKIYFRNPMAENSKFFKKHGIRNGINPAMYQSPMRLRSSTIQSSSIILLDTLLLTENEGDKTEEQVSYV
Series [4] has as its target T1, 5-HT2C receptor. Put plainly: Radioligand binding assay with [125I]DOI. The following applies: competition with [125I]DOI, membranes of HEK293 cells expressing recombinant 5-HT2C receptors; read-out: DOI Binding Ki (nM) 2C. How it is done:
For the compounds of Table A, the following procedure was used. HEK293 cells stably expressing recombinant 5-HT2C receptors were harvested, suspended in ice-cold phosphate buffered saline, pH 7.4 (PBS), and then centrifuged at 48,000 g for 20 min at 4° C. The resulting cell pellet was then re-suspended in wash buffer containing 20 mM HEPES, pH 7.4 and 0.1 mM EDTA, homogenized on ice using a Brinkman Polytron, and centrifuged (48,000 g for 20 min at 4° C.). The pellet was then resuspended in 20 mM HEPES, pH 7.4, homogenized on ice, and centrifuged (48,000 g for 20 min at 4° C.). Crude membrane pellets were stored at −80° C. until used for radioligand binding assays.
For the compounds of Table A, the following procedure was used. […] Experiments comprised addition of 95 μL of assay buffer (20 mM HEPES, pH 7.4, 10 mM MgCl2), 50 μL of membranes, 50 μL of radioligand stock, and 5 μL of test compound diluted in assay buffer to 96-well microtiter plates, which were then incubated for 1 h at room temperature. Assay incubations were terminated by rapid filtration through PerkinElmer F/C filtration plates under reduced pressure using a 96-well Packard filtration apparatus, followed by washing three times with ice cold assay buffer. Plates were then dried at 45° C. for a minimum of 2 h. Finally, 25 μL of BetaScint™ scintillation cocktail was added to each well and the plates were counted in a Packard TopCount® scintillation counter. In each competition study, test compounds were dosed at ten concentrations with triplicate determinations at each test concentration.

Series [5] addresses T2, 5-HT2A receptor. Put plainly: Radioligand binding assay with [125I]DOI. Conditions: competition with [125I]DOI, read-out: DOI Binding Ki (nM) 2A.
Series [6] addresses T3, 5-HT2B receptor. Put plainly: Radioligand binding assay with [125I]DOI. The following applies: competition with [125I]DOI, read-out: DOI Binding Ki (nM) 2B.
The conditions of series [7]: reports that led to withdrawal by the FDA in 1998; cited from earlier work.
For series [8] the following is noted: 10 mg BID, patients with type 2 diabetes, cited from earlier work.
For series [9] the following is noted: patients without diabetes, cited from earlier work.
For series [10] the following is noted: cited from earlier work.
The conditions of series [11]: cited from earlier work. This is another data set of the same source.
Setting [12] is: patients with type 2 diabetes, BELVIQ BID.
Setting [13] is: patients without type 2 diabetes.
Where [14] appears, read: pivotal phase 3 program, treated for up to two years.

The structures appear in SMILES notation. Like-named read-outs stand apart in the source and are kept apart here. Bounds are passed on as bounds.

T2 sequence (P28223 whole entry): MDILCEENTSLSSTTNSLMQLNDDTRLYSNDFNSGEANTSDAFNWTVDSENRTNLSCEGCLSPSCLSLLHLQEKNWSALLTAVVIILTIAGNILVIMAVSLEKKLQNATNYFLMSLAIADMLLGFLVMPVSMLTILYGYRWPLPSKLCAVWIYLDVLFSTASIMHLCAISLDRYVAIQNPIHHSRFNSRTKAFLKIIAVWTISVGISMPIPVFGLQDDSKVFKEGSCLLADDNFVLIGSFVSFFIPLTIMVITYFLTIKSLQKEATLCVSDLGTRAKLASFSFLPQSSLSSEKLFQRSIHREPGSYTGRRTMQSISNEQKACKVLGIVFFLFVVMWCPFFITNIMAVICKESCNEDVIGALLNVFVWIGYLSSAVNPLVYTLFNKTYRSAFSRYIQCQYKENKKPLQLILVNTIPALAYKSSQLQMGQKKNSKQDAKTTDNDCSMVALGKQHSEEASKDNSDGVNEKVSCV

As to `CC1(C)CC2CCNCc3ccc(F)c(c32)C12CC2` (stereo not shown) [Compound 119, 8′-fluoro-6′,6′-dimethyl-2′,3′,4′,4a′,5′,6′-hexahydro-1′H-spiro[cyclopropane-1,7′-naphtho[1,8-cd]azepine]], the figures for the EC50 at 5-HT2C receptor [1], at 5-HT2A receptor [2] and on 5-HT2B receptor [3] were 391 nM, greater than 100000 nM and greater than 100000 nM, respectively.
On to `c1cc2c3c(c1)C1(CC1)C1(CC1)CC3CCNC2` (stereo not shown) [Compound 130, 2′,3′,4′,4a′,5′-pentahydro-1′H-dispiro[cyclopropane-1,6′-cyclopropane-7′,1″- naphtho[1,8-cd]azepine]], for which the inhibition constant Ki (commonly a measure of affinity in units of concentration, obtained from inhibition or displacement) on 5-HT2C receptor [4] amounted to 1.96 nM; at 5-HT2A receptor [5], 34.4 nM; on 5-HT2B receptor [6], 75.7 nM. For the same compound, the EC50 – broadly, the concentration at which the effect is half-maximal – stood at 5.21 nM on 5-HT2C receptor [1], 465 nM on 5-HT2A receptor [2] and 967 nM at 5-HT2B receptor [3].
Consider `c1cc2c3c(c1)C1(CCC1)CCC3CCNC2` (stereo not shown) [Compound 131, 2′,3′,4′,4a′,5′,6′-hexahydro-1′H-spiro[cyclobutane-1,7′-naphtho[1,8-cd]azepine]], for which the EC50 on 5-HT2C receptor [1] was 83.5 nM; on 5-HT2A receptor [2], greater than 100000 nM; at 5-HT2B receptor [3] it was greater than 100000 nM.
On to `Brc1ccc2c3c1CCCC3CCNC2` (stereo not shown) [Compound 106, 8-bromo-1,2,3,4,4a,5,6,7-octahydronaphtho[1,8-cd]azepine], for which the inhibition constant Ki on 5-HT2C receptor [4] was found to be 105 nM; on 5-HT2A receptor [5] it was 244 nM; on 5-HT2B receptor [6] it was 125 nM.
On to `CC1(C)CCC2CCNCc3cccc1c32` (stereo not shown) [Compound 135, 7,7-dimethyl-1,2,3,4,4a,5,6,7-octahydronaphtho[1,8-cd]azepine], for which the Ki came to 69.6 nM on 5-HT2C receptor [4], 458 nM at 5-HT2A receptor [5] and 395 nM on 5-HT2B receptor [6].
Regarding `CCc1ccc2c3c1C1(CC1)C1(CC1)CC3CCNC2` (stereo not shown) [Compound 101, 8′-ethyl-2′,3′,4′,4a′,5′-pentahydro-1′H-dispiro[cyclopropane-1,6′-cyclopropane-7′,1″- naphtho[1,8-cd]azepine]], the values for the 50% effective concentration (EC50) on 5-HT2C receptor [1], on 5-HT2A receptor [2] and on 5-HT2B receptor [3] were 2040 nM, greater than 100000 nM and greater than 100000 nM, respectively.
`CCN[C@@H](C)Cc1cccc(C(F)(F)F)c1` [d-fenfluramine]: in series [7], the “share of patients with reported cardiac valve defects” value is recorded as “up to one third”.
With `CC1(C)c2cccc3c2C(CCNC3)CC12CC2` (stereo not shown) [Compound 121, 7,7′-dimethyl-2′,3′,4′,4a′,5′,7′-hexahydro-1′H-spiro[cyclopropane-1,6′-naphtho[1,8-cd]azepine]], the Ki at 5-HT2C receptor [4] amounted to 27.6 nM; on 5-HT2A receptor [5], 423 nM; on 5-HT2B receptor [6] it was 634 nM. The half-maximal effective concentration (EC50) was 222 nM on 5-HT2C receptor [1], greater than 100000 nM on 5-HT2A receptor [2] and greater than 100000 nM on 5-HT2B receptor [3].
`C[C@H]1CNCCc2ccc(Cl)cc21` [lorcaserin, (R)-8-chloro-1-methyl-2,3,4,5-tetrahydro-1H-3-benzazepine]: the “reduction in HbA1c” value in series [8] (placebo 0.4%) is listed as 0.9%. Moreover, the “reduction in fasting glucose” value in series [8] (placebo 11.9%) is reported as 27.4%. Moreover, the “change of insulin resistance (HOMA-IR)” value in [9] (one study, placebo −0.2) is −0.4. In series [9] (one study, placebo −1.3 μIU/mL), the “change of fasting insulin” value is −3.3 μIU/mL. Further, in [9] (placebo +0.6 mg/dL), the “change of mean fasting glucose” value is -0.2 mg/dL. In [10] (setting [12]), the “patients who decreased the total daily dose of medications used for treatment of dyslipidemia” value is on record as 5.5% and the “patients who increased use of medications used for treatment of dyslipidemia” value is given as 3.1%. In addition, the “decrease of mean daily doses of sulfonylureas and thiazolidinediones” value in series [10] (patients with type 2 diabetes, BELVIQ groups) is 16-24%. In addition, in series [10] (patients with type 2 diabetes), the “patients who decreased total daily dose of antihypertensive medications” value is on record as 8.2% and the “patients who increased total daily dose of antihypertensive medications” value is 6.6%. In addition, in series [10] (setting [13]), the “patients who decreased the total daily dose of medications used for treatment of dyslipidemia” value is given as 1.3%, the “patients who decreased total daily dose of antihypertensive medications” value is 2.2%, the “patients who increased total daily dose of antihypertensive medications” value is reported as 2.2% and the “patients who increased use of medications used for treatment of dyslipidemia” value is reported as 2.6%. The “share of excess body weight lost” value in series [11] (first phase 3 trial, based on a normal BMI of 25) was “about one-third”. Also, the “risk of cardiac valvulopathy” value in [11] (phase 3 program) is “did not increase the risk of cardiac valvulopathy”. In addition, in [11] (setting [14]), the “proportion of patients that achieved at least 5% weight loss” value was “About two-thirds” and the “proportion of patients that achieved at least 10% weight loss” value is “over one-third”. Further, the “average weight lost as share of their weight” value in series [11] (pivotal phase 3 program) is on record as “about 8%”. Further, in series [11] (second phase 3 trial), the “average weight loss, top quartile of patients” value was 35 pounds and the “average weight loss, top quartile of patients, of body weight” value is given as 16%.
On to `CC1(C)CC2CCNCc3cccc(c32)C12CC2` (stereo not shown) [Compound 102, 6′,6′-dimethyl-2′,3′,4′,4a′,5′,6-hexahydro-1′H-spiro[cyclopropane-1,7′-naphtho[1,8-cd]azepine]], for which the inhibition constant Ki on 5-HT2C receptor [4] stood at 10.3 nM; on 5-HT2A receptor [5] it was 236 nM; at 5-HT2B receptor [6], 255 nM.
As to `c1cc2c3c(c1)C1(CCC3CCNC2)CC1` (stereo not shown) [Compound 128, 2′,3′,4′,4a′,5′,6′-hexahydro-1′H-spiro[cyclopropane-1,7′-naphtho[1,8-cd]azepine]], the EC50 at 5-HT2C receptor [1] was 108 nM; at 5-HT2A receptor [2], greater than 100000 nM; at 5-HT2B receptor [3], 284 nM.
